Drawing on patent US20210179600A1, “OXAZOLE AND THIAZOLE DERIVATIVES AS INHIBITORS OF ASK1” (Hepagene Therapeutics (HK) Limited, priority 2017, published 2021), this text covers EC50 for 53 molecules.

This assay concerns the target T1, Recombinant human ASK1 kinase (Homo sapiens, UniProt Q99683).
T1 construct: purchased Invitrogen Inc
T1 sequence (Q99683 1-1374): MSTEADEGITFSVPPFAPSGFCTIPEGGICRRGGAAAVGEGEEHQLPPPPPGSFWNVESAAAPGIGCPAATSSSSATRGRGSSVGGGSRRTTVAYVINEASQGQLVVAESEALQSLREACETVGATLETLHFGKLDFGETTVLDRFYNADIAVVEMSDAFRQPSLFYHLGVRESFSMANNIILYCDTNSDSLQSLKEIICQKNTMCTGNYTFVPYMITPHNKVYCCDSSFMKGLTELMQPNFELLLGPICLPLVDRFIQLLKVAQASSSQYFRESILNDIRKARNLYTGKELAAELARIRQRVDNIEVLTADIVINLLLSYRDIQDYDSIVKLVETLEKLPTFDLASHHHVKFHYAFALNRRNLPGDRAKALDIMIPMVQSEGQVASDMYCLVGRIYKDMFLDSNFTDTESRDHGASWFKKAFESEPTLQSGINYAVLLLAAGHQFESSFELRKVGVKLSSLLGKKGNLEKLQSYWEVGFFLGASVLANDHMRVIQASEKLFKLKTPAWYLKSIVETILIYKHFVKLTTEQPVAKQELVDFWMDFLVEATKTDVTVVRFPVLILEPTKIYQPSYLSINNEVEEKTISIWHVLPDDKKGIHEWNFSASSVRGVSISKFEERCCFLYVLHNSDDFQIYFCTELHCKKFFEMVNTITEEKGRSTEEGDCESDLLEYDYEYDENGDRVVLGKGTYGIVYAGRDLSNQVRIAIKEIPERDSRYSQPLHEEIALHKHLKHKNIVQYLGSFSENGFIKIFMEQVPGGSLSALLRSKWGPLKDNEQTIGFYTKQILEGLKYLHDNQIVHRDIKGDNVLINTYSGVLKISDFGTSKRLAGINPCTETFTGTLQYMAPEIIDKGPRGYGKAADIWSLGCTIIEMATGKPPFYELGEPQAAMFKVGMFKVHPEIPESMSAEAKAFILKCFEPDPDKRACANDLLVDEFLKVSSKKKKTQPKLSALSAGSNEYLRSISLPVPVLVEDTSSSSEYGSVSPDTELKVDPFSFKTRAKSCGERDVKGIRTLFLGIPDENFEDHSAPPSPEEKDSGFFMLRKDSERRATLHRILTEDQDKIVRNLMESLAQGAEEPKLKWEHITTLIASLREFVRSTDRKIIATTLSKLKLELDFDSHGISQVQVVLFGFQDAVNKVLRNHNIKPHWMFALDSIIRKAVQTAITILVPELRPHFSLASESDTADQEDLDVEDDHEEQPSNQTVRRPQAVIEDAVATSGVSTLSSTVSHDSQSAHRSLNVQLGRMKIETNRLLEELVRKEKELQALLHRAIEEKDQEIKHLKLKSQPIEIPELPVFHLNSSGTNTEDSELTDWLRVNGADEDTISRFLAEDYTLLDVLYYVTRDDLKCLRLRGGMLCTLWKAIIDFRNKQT
Briefly: ASK1 kinase HTRF assay (KinEASE-STK). It is filed as biochemical. The following applies: HTRF detection; 3 nM ASK1 kinase, 1 uM STK-substrate-biotin. As to the method:
Reagents: Recombinant human ASK1 kinase was from Invitrogen Inc. HTRF KinEASE™-STK S3 kit was obtained from Cisbio (Bedford, Mass.). All other reagents were of the highest grade commercially available.
Assay: The assay measures the phosphorylation level of a biotinylatd peptide substrate by the ASK1 kinase using HTRF detection. ASK1 kinase assay is based on HTRF KinEASE™-STK manual from Cisbio. Test compound, 1 uM STK-substrate-biotin, 3 nM of ASK1 kinase are incubated with 1*Kinase buffer with 5 mM MgCl2 and 1 mM DTT. 250 nM Sa-XL 665(4*) and STK-antibody-Cryptate work solution are added to stop the reaction and phosphorylated peptide substrate is detected using Envision 2104 Multilabeled reader from PerkinElmer. The fluorescence is measured at 615 nm (Cryptate) and 665 nm (XL665) and a ratio of 665 nm/615 nm is calculated for each well. The resulting TR-FRET level (a ratio of 665 nm/615 nm) is proportional to the phosphorylation level of substrate.
The term EC50 denotes the concentration needed to bring the measured effect to its halfway point. In the case of `CC(C)n1cnnc1-c1cccc(-c2ncc(-c3ccc(F)cc3F)o2)n1` [Compound I-049], the EC50 was in the range of 0.05 to 0.5 µM.
On to `CC(C)n1cnnc1-c1cccc(-c2ncc(-c3c(F)cccc3F)o2)n1` [Compound I-050], for which the EC50 is at most 0.05 µM.
Next, `C[C@H](CO)n1cnnc1-c1cccc(-c2ncc(-c3c(F)cccc3F)o2)n1` [Compound I-051]: at most 0.05 µM; `Cc1cc(F)c(-c2cnc(-c3cccc(-c4nncn4[C@H](C)CO)n3)o2)c(F)c1` [Compound I-052]: at most 0.05 µM; `C[C@H](CO)n1cnnc1-c1cccc(-c2ncc(-c3c(F)cc(F)cc3F)o2)n1` [Compound I-053]: at most 0.05 µM.
Take `CC(C)n1cnnc1-c1cccc(-c2ncc(-c3ccc(N(C)C)cc3)o2)n1` [Compound I-057]: the EC50 was at most 0.05 µM.
Next, `CC(C)n1cnnc1-c1cccc(-c2ncc(-c3cccc(N(C)C)c3)o2)n1` [Compound I-058]: at most 0.05 µM; `C[C@H](CO)n1cnnc1-c1cccc(-c2ncc(-c3cccc(N(C)C)c3)o2)n1` [Compound I-059]: at most 0.05 µM.
Next, `CNc1ccc(-c2cnc(-c3cccc(-c4nncn4C(C)C)n3)o2)cc1` [Compound I-060]: at most 0.05 µM; `CNc1cccc(-c2cnc(-c3cccc(-c4nncn4C(C)C)n3)o2)c1` [Compound I-061]: at most 0.05 µM.
With `CNc1cccc(-c2cnc(-c3cccc(-c4nncn4[C@H](C)CO)n3)o2)c1` [Compound I-062], the EC50 is at most 0.05 µM.
As to `CC(C)n1cnnc1-c1cccc(-c2ncc(-c3cccc(N)c3)o2)n1` [Compound I-063], the half-maximal effective concentration (EC50) was at most 0.05 µM.
As to `C[C@H](CO)n1cnnc1-c1cccc(-c2ncc(-c3cccc(N)c3)o2)n1` [Compound I-064], the EC50 is at most 0.05 µM.
The figure for `CC(C)n1cnnc1-c1cccc(-c2ncc(-c3ccc(N)cc3)o2)n1` [Compound I-065] is at most 0.05 µM; for `C[C@H](CO)n1cnnc1-c1cccc(-c2ncc(-c3ccc(N)cc3)o2)n1` [Compound I-066] it is at most 0.05 µM; for `CSc1ccc(-c2cnc(-c3cccc(-c4nncn4C(C)C)n3)o2)cc1` [Compound I-067] it is at most 0.05 µM.
Turning to `CSc1cccc(-c2cnc(-c3cccc(-c4nncn4C(C)C)n3)o2)c1` [Compound I-068], the EC50 was at most 0.05 µM.
Take `COc1cccc(-c2cnc(-c3cccc(-c4nncn4C(C)C)n3)o2)c1` [Compound I-070]: the EC50 lay in the range of 0.05 to 0.5 µM.
With `COc1ccc(-c2cnc(-c3cccc(-c4nncn4C(C)C)n3)o2)cc1` [Compound I-071], the EC50 was 0.05 to 0.5 µM.
With `CC(C)n1cnnc1-c1cccc(-c2ncc(-c3ccccc3O)o2)n1` [Compound I-072], the half-maximal effective concentration (EC50) was at most 0.05 µM.
As to `CC(C)n1cnnc1-c1cccc(-c2ncc(-c3cccc(O)c3)o2)n1` [Compound I-073], the EC50 was at most 0.05 µM.
In the case of `C[C@H](CO)n1cnnc1-c1cccc(-c2ncc(-c3cccc(O)c3)o2)n1` [Compound I-074], the EC50 is at most 0.05 µM.
As for `CC(C)Oc1cccc(-c2cnc(-c3cccc(-c4nncn4C(C)C)n3)o2)c1` [Compound I-076], the EC50 was at most 0.05 µM.
For the molecule `CCCCCCOc1cccc(-c2cnc(-c3cccc(-c4nncn4[C@H](C)CO)n3)o2)c1` [Compound I-077], the EC50 was at most 0.05 µM.
The figure for `COCCOc1cccc(-c2cnc(-c3cccc(-c4nncn4C(C)C)n3)o2)c1` [Compound I-078] is at most 0.05 µM; for `CC(C)n1cnnc1-c1cccc(-c2ncc(-c3cccc(OC[C@@H]4CNCCO4)c3)o2)n1` [Compound I-079] it is at most 0.05 µM; for `CC(C)n1cnnc1-c1cccc(-c2ncc(-c3cccc(OC[C@@H]4CN(C)CCO4)c3)o2)n1` [Compound I-080] it is at most 0.05 µM.
The figure for `CC(C)n1cnnc1-c1cccc(-c2ncc(-c3ccc(OC(F)(F)F)cc3)o2)n1` [Compound I-081] is 0.05 to 0.5 µM.
With `CC(C)n1cnnc1-c1cccc(-c2ncc(-c3cccc(OC(F)(F)F)c3)o2)n1` [Compound I-082], the EC50 lay in the range of 0.05 to 0.5 µM.
The figure for `CC(C)n1cnnc1-c1cccc(-c2ncc(-c3cccc(OC(F)F)c3)o2)n1` [Compound I-083] is 0.05 to 0.5 µM.
For `CC(C)n1cnnc1-c1cccc(-c2ncc(-c3ccc(OC(F)F)cc3)o2)n1` [Compound I-084], the EC50 was at most 0.05 µM.
With `CC(C)n1cnnc1-c1cccc(-c2ncc(-c3ccccc3C(F)(F)F)o2)n1` [Compound I-085], the EC50 is 0.05 to 0.5 µM.
In the case of `CC(C)n1cnnc1-c1cccc(-c2ncc(-c3cccc(C(F)(F)F)c3)o2)n1` [Compound I-086], the EC50 was 0.05 to 0.5 µM.
Regarding `CC(C)n1cnnc1-c1cccc(-c2ncc(-c3cccc(C(F)F)c3)o2)n1` [Compound I-087], the EC50 is 0.05 to 0.5 µM.
For `CC(C)n1cnnc1-c1cccc(-c2ncc(-c3ccccc3C#N)o2)n1` [Compound I-089], the EC50 lay in the range of 0.05 to 0.5 µM.
In the case of `CC(C)n1cnnc1-c1cccc(-c2ncc(-c3cccc(C#N)c3)o2)n1` [Compound I-090], the half-maximal effective concentration (EC50) fell in the range of 0.05 to 0.5 µM.
Next, `CC(C)n1cnnc1-c1cccc(-c2ncc(-c3ccc(C#N)cc3)o2)n1` [Compound I-091]: 0.05 to 0.5 µM.
Next, `COC(=O)c1cccc(-c2cnc(-c3cccc(-c4nncn4C(C)C)n3)o2)c1` [Compound I-092]: at most 0.05 µM.
For the molecule `COC(=O)c1ccc(-c2cnc(-c3cccc(-c4nncn4C(C)C)n3)o2)cc1` [Compound I-093], the EC50 lay in the range of 0.05 to 0.5 µM.
With `CC(C)n1cnnc1-c1cccc(-c2ncc(-c3ccc(C(=O)O)cc3)o2)n1` [Compound I-094], the EC50 is at most 0.05 µM.
As for `CC(C)n1cnnc1-c1cccc(-c2ncc(-c3ccc(C(N)=O)cc3)o2)n1` [Compound I-095], the EC50 is 0.05 to 0.5 µM.
Next, `CSc1ccccc1-c1cnc(-c2cccc(-c3nncn3[C@H](C)CO)n2)o1` [Compound I-096]: at most 0.05 µM.
As to `C[C@H](CO)n1cnnc1-c1cccc(-c2ncc(-c3cccc(S(C)(=O)=O)c3)o2)n1` [Compound I-097], the EC50 was at most 0.05 µM.
Take `C[C@H](CO)n1cnnc1-c1cccc(-c2ncc(-c3ccc(S(C)(=O)=O)cc3)o2)n1` [Compound I-098]: the EC50 is at most 0.05 µM.
Next, `C[C@H](CO)n1cnnc1-c1cccc(-c2ncc(-c3cccc(S(N)(=O)=O)c3)o2)n1` [Compound I-099]: at most 0.05 µM.
As to `C[C@H](CO)n1cnnc1-c1cccc(-c2ncc(-c3ccc(S(N)(=O)=O)cc3)o2)n1` [Compound I-100], the EC50 is at most 0.05 µM.
Take `CC(C)n1cnnc1-c1cccc(-c2ncc(-c3ccc4ccccc4c3)o2)n1` [Compound I-101]: the EC50 fell in the range of 0.05 to 0.5 µM.
With `CC(C)n1cnnc1-c1cccc(-c2ncc(-c3ccc4c(c3)OCCO4)o2)n1` [Compound I-102], the EC50 is at most 0.05 µM.
The figure for `CC(C)n1cnnc1-c1cccc(-c2ncc(-c3ccc4c(c3)CCCC4)o2)n1` [Compound I-103] is 0.05 to 0.5 µM; for `CC(C)n1cnnc1-c1cccc(-c2ncc(-c3cccc(-c4ccccc4)c3)o2)n1` [Compound I-104] it is 0.05 to 0.5 µM.
Consider `CC(C)n1cnnc1-c1cccc(-c2ncc(-c3ccc(-c4ccccc4)cc3)o2)n1` [Compound I-105], for which the EC50 was in the range of 0.05 to 0.5 µM.
Consider `CC(C)n1cnnc1-c1cccc(-c2ncc(-c3cccc(-c4ccccn4)c3)o2)n1` [Compound I-106], for which the EC50 is 0.05 to 0.5 µM.
Take `CC(C)n1cnnc1-c1cccc(-c2ncc(-c3cccc(-c4cccnc4)c3)o2)n1` [Compound I-107]: the EC50 was at most 0.05 µM.
